# How the values were obtained:
# Hepatitis C virus [1] = assay: Antiviral activity against HCV genotype 1a infected in human HuH7 cells by luciferase reporter gene assay; format: functional, cell-based, Hepacivirus hominis; conditions: subtype 1a, Huh-7
# Hepatitis C virus [2] = assay: Antiviral activity against HCV genotype 1b infected in human HuH7 cells by luciferase reporter gene assay; format: functional, cell-based, Hepacivirus hominis; conditions: Huh-7
# Hepatitis C virus [3] = assay: Antiviral activity against HCV genotype 3a infected in human HuH7 cells by luciferase reporter gene assay; format: functional, cell-based, Hepacivirus hominis; conditions: Huh-7
# [4] = Clearance in Sprague-Dawley rat at 1 mg/kg, iv; format: ADME, organism-based; design: dose 1 mg/kg, route intravenous; conditions: Sprague-Dawley, in vivo
# [5] = Volume of distribution at steady state in Sprague-Dawley rat at 1 mg/kg, iv; format: ADME, organism-based; design: dose 1 mg/kg, route intravenous; conditions: in vivo, read-out: Vdss
# [6] = Half life in Sprague-Dawley rat at 1 mg/kg, iv; format: ADME, organism-based; design: dose 1 mg/kg, route intravenous; conditions: in vivo
# [7] = AUC(last) in Sprague-Dawley rat at 1 mg/kg, iv; format: ADME, organism-based, Plasma; design: time 0 - last, dose 1 mg/kg, route intravenous; conditions: Sprague-Dawley, plasma
# [8] = Tmax in Sprague-Dawley rat at 5 mg/kg, po; format: ADME, organism-based; design: dose 5 mg/kg, route oral; conditions: in vivo
# [9] = Cmax in Sprague-Dawley rat at 5 mg/kg, po; format: ADME, organism-based; design: dose 5 mg/kg, route oral; conditions: in vivo
# [10] = AUC(last) in Sprague-Dawley rat at 5 mg/kg, po; format: ADME, organism-based; design: dose 5 mg/kg, route oral, time 0 - last; conditions: plasma
# [11] = Oral bioavailability in Sprague-Dawley rat at 5 mg/kg; format: ADME, organism-based; conditions: in vivo
# [12] = Drug level in Sprague-Dawley rat liver at 5 mg/kg, po measured 4 hrs post dose; format: ADME, organism-based; design: dose 5 mg/kg, route oral; conditions: read-out: Drug uptake
# [13] = Plasma concentration in Sprague-Dawley rat at 5 mg/kg, po measured 4 hrs post dose; format: ADME, organism-based; design: dose 5 mg/kg, route oral
# [14] = Tmax in Sprague-Dawley rat at 75 mg/kg, po; format: ADME, organism-based; design: dose 75 mg/kg, route oral; conditions: in vivo
# [15] = Cmax in Sprague-Dawley rat at 75 mg/kg, po; format: ADME, organism-based; design: dose 75 mg/kg, route oral; conditions: in vivo
# [16] = AUC(last) in Sprague-Dawley rat at 75 mg/kg, po; format: ADME, organism-based; design: time 0 - last, dose 75 mg/kg, route oral; conditions: plasma
# [17] = Tmax in Sprague-Dawley rat at 250 mg/kg, po; format: ADME, organism-based; design: dose 250 mg/kg, route oral; conditions: in vivo
# [18] = Cmax in Sprague-Dawley rat at 250 mg/kg, po; format: ADME, organism-based; design: dose 250 mg/kg, route oral; conditions: in vivo
# [19] = AUC(last) in Sprague-Dawley rat at 250 mg/kg, po; format: ADME, organism-based; design: time 0 - last, dose 250 mg/kg, route oral; conditions: plasma
# [20] = Clearance in beagle dog at 1 mg/kg, iv; format: ADME, organism-based, Canis lupus familiaris; design: dose 1 mg/kg, route intravenous; conditions: in vivo
# [21] = Volume of distribution at steady state in beagle dog at 1 mg/kg, iv; format: ADME, organism-based, Canis lupus familiaris; design: dose 1 mg/kg, route intravenous; conditions: in vivo, read-out: Vdss
# [22] = Half life in beagle dog at 1 mg/kg, iv; format: ADME, organism-based, Canis lupus familiaris; design: dose 1 mg/kg, route intravenous; conditions: in vivo
# [23] = AUC(last) in beagle dog at 1 mg/kg, iv; format: ADME, organism-based, Canis lupus familiaris; design: time 0 - last, dose 1 mg/kg, route intravenous; conditions: plasma
# [24] = Tmax in beagle dog at 5 mg/kg, po; format: ADME, organism-based, Canis lupus familiaris; design: dose 5 mg/kg, route oral; conditions: in vivo
# [25] = Cmax in beagle dog at 5 mg/kg, po; format: ADME, organism-based, Canis lupus familiaris; design: dose 5 mg/kg, route oral; conditions: in vivo
# [26] = AUC(last) in beagle dog at 5 mg/kg, po; format: ADME, organism-based, Canis lupus familiaris; design: time 0 - last, dose 5 mg/kg, route oral; conditions: plasma
# [27] = Oral bioavailability in beagle dog at 5 mg/kg; format: ADME, organism-based, Canis lupus familiaris; conditions: in vivo
# [28] = Tmax in beagle dog at 75 mg/kg, po; format: ADME, organism-based, Canis lupus familiaris; design: dose 75 mg/kg, route oral; conditions: in vivo
# [29] = Cmax in beagle dog at 75 mg/kg, po; format: ADME, organism-based, Canis lupus familiaris; design: dose 75 mg/kg, route oral; conditions: in vivo
# [30] = AUC(last) in beagle dog at 75 mg/kg, po; format: ADME, organism-based, Canis lupus familiaris; design: time 0 - last, dose 75 mg/kg, route oral; conditions: plasma
# [31] = Tmax in beagle dog at 250 mg/kg, po; format: ADME, organism-based, Canis lupus familiaris; design: dose 250 mg/kg, route oral; conditions: in vivo
# [32] = Cmax in beagle dog at 250 mg/kg, po; format: ADME, organism-based, Canis lupus familiaris; design: dose 250 mg/kg, route oral; conditions: in vivo
# [33] = AUC(last) in beagle dog at 250 mg/kg, po; format: ADME, organism-based, Canis lupus familiaris; design: dose 250 mg/kg, route oral, time 0 - last; conditions: plasma
# [34] = Clearance in cynomolgus monkey at 1 mg/kg, iv; format: ADME, organism-based, Macaca fascicularis; design: dose 1 mg/kg, route intravenous; conditions: in vivo
# [35] = Volume of distribution at steady state in cynomolgus monkey at 1 mg/kg, iv; format: ADME, organism-based, Macaca fascicularis; design: dose 1 mg/kg, route intravenous; conditions: in vivo, read-out: Vdss
# [36] = Half life in cynomolgus monkey at 1 mg/kg, iv; format: ADME, organism-based, Macaca fascicularis; design: dose 1 mg/kg, route intravenous; conditions: in vivo
# [37] = AUC(last) in cynomolgus monkey at 1 mg/kg, iv; format: ADME, organism-based, Macaca fascicularis; design: time 0 - last, dose 1 mg/kg, route intravenous; conditions: plasma
# [38] = Tmax in cynomolgus monkey at 5 mg/kg, po; format: ADME, organism-based, Macaca fascicularis; design: dose 5 mg/kg, route oral; conditions: in vivo
# [39] = Cmax in cynomolgus monkey at 5 mg/kg, po; format: ADME, organism-based, Macaca fascicularis; design: dose 5 mg/kg, route oral; conditions: in vivo
# [40] = AUC(last) in cynomolgus monkey at 5 mg/kg, po; format: ADME, organism-based, Macaca fascicularis; design: time 0 - last, dose 5 mg/kg, route oral; conditions: plasma
# [41] = Oral bioavailability in cynomolgus monkey at 5 mg/kg; format: ADME, organism-based, Macaca fascicularis; conditions: in vivo
# [42] = Tmax in cynomolgus monkey at 75 mg/kg, po; format: ADME, organism-based, Macaca fascicularis; design: dose 75 mg/kg, route oral; conditions: in vivo
# [43] = Cmax in cynomolgus monkey at 75 mg/kg, po; format: ADME, organism-based, Macaca fascicularis; design: dose 75 mg/kg, route oral; conditions: in vivo
# [44] = AUC(last) in cynomolgus monkey at 75 mg/kg, po; format: ADME, organism-based, Macaca fascicularis; design: time 0 - last, dose 75 mg/kg, route oral; conditions: plasma
# [45] = Tmax in cynomolgus monkey at 250 mg/kg, po; format: ADME, organism-based, Macaca fascicularis; design: dose 250 mg/kg, route oral; conditions: in vivo
# [46] = Cmax in cynomolgus monkey at 250 mg/kg, po; format: ADME, organism-based, Macaca fascicularis; design: dose 250 mg/kg, route oral; conditions: in vivo
# [47] = AUC(last) in cynomolgus monkey at 250 mg/kg, po; format: ADME, organism-based, Macaca fascicularis; design: time 0 - last, dose 250 mg/kg, route oral; conditions: plasma
# Hepatitis C virus [48] = assay: Antiviral activity against HCV genotype 4a infected in human HuH7 cells by luciferase reporter gene assay; format: functional, cell-based, Hepacivirus hominis; conditions: Huh-7
# Hepatitis C virus [49] = assay: Antiviral activity against HCV genotype 5a infected in human HuH7 cells by luciferase reporter gene assay; format: functional, cell-based, Hepacivirus hominis; conditions: Huh-7
# Hepatitis C virus [50] = assay: Antiviral activity against HCV genotype 6a infected in human HuH7 cells by luciferase reporter gene assay; format: functional, cell-based, Hepacivirus hominis; conditions: Huh-7
# [51] = Tmax in Sprague-Dawley rat at 5 mg/kg, po formulated with 5%MC, 95% saline; format: ADME, organism-based; design: dose 5 mg/kg, route oral; conditions: in vivo
# [52] = Cmax in Sprague-Dawley rat at 5 mg/kg, po formulated with 5%MC, 95% saline; format: ADME, organism-based; design: dose 5 mg/kg, route oral; conditions: in vivo
# [53] = AUC(last) in Sprague-Dawley rat at 5 mg/kg, po formulated with 5%MC, 95% saline; format: ADME, organism-based; design: time 0 - last, dose 5 mg/kg, route oral; conditions: plasma
# [54] = Oral bioavailability in Sprague-Dawley rat at 5 mg/kg formulated with 5%MC, 95% saline; format: ADME, organism-based; conditions: in vivo
compound,measurement,setting,value
COC(=O)N[C@H](C(=O)N1CCC[C@H]1c1ncc(-c2ccc3c(c2)Oc2ccc(-c4cnc([C@@H]5CCCN5C(=O)[C@@H](NC(=O)OC)C(C)C)[nH]4)cc2C3(C)C)[nH]1)C(C)C,EC50,Hepatitis C virus [1],73 pM
same,EC50,Hepatitis C virus [2],11 pM
same,EC50,Hepatitis C virus [3],290 pM
same,clearance,[4],17.8 mL/min/kg
same,Vd,[5],1.8 L/kg
same,half-life,[6],1.41 h
same,AUC(0-t),[7],926 ng·h/mL
same,Tmax,[8],3 h
same,Cmax,[9],874 ng/mL
same,AUC(0-t),[10],5250 ng·h/mL
same,bioavailability,[11],112%
same,concentration at 4 h,[12],2610 ng/mL
same,concentration at 4 h,[13],833 ng/mL
same,Tmax,[14],4 h
same,Cmax,[15],12400 ng/mL
same,AUC(0-t),[16],137000 ng·h/mL
same,Tmax,[17],3.33 h
same,Cmax,[18],16200 ng/mL
same,AUC(0-t),[19],187000 ng·h/mL
same,clearance,[20],2.67 mL/min/kg
same,Vd,[21],0.74 L/kg
same,half-life,[22],3.77 h
same,AUC(0-t),[23],6180 ng·h/mL
same,Tmax,[24],1 h
same,Cmax,[25],2760 ng/mL
same,AUC(0-t),[26],16500 ng·h/mL
same,bioavailability,[27],53.4%
same,Tmax,[28],4 h
same,Cmax,[29],6400 ng/mL
same,AUC(0-t),[30],83000 ng·h/mL
same,Tmax,[31],5 h
same,Cmax,[32],12200 ng/mL
same,AUC(0-t),[33],192000 ng·h/mL
same,clearance,[34],7 mL/min/kg
same,Vd,[35],1.33 L/kg
same,half-life,[36],3.56 h
same,AUC(0-t),[37],2380 ng·h/mL
same,Tmax,[38],3 h
same,Cmax,[39],486 ng/mL
same,AUC(0-t),[40],3370 ng·h/mL
same,bioavailability,[41],28.4%
same,Tmax,[42],3 h
same,Cmax,[43],3600 ng/mL
same,AUC(0-t),[44],17800 ng·h/mL
same,Tmax,[45],4 h
same,Cmax,[46],8100 ng/mL
same,AUC(0-t),[47],46600 ng·h/mL
same,EC50,Hepatitis C virus [48],25 pM
same,EC50,Hepatitis C virus [49],17 pM
same,EC50,Hepatitis C virus [50],62 pM
same,Tmax,[51],0.5 h
same,Cmax,[52],761 ng/mL
same,AUC(0-t),[53],4120 ng·h/mL
same,bioavailability,[54],88.9%

# Reference: ChEMBL document CHEMBL3351732, “Potent bisimidazole-based HCV NS5A inhibitors bearing annulated tricyclic motifs” (Bioorg Med Chem Lett, 2014)
